Measurements as given in patent publication US7985072B2, “Method and apparatus for tooth rejuvenation and hard tissue modification” (Rejuvedent LLC, priority 2005, dated 2011).

Legend:
gingival tissue = test: Safe treatment time (STT): onset of discomfort on subjects' gingival tissue; assay type: in vivo, human; parameters: key to effect of discomfort on gingival tissue: “−” means that the subject experienced no discomfort; “+” means that some discomfort was reported
Description: It was discovered, that a high concentration and low pH acid can work well for exposure times long enough to produce significant changes to hard tissue. The use of high concentration, edible acids for treatment of hard tissues is limited by the action of such acids on soft tissues. […] The typical application time for the desired depth of etching can be from 1-5 minutes for home use, and up for up to 10-20 minutes for professional use. The safe treatment time (STT) is defined as the time during which acid can interact with the soft tissues without damaging them. The STT depends on the acid concentration and the temperature, i.e. STT (pH,T), where pH is the pH of the acid, and T is the temperature of the acid. […] The experiment was conducted on subjects with healthy oral tissues. Prior to treatment, the acid was heated to a control temperature T, using a thermostat, and a small volume (approximately 5×10^−3 ml) of acid was applied to an area of the subject's gingival tissue. The thermo-relaxation time of such a volume is approximately 5-10 seconds. To provide for a relatively constant temperature on the tissue surface, the acid was reapplied at the same temperature T to the same area every 5-10 seconds. This procedure was repeated until the subject reported discomfort. A feeling of discomfort always precedes tissue damage. Therefore, the time of the onset of discomfort can be used as an estimate of the STT with a certain safety margin.

[1] = Six-hour exposure of extracted teeth to gel or citric acid; settings: +24° C.
Source text: Control of etching using highly concentrated edible acid can be achieved by using different additives. The interaction between acid and hard tissue leads to a dissolution of mineral components and modification of organic components. Three types of dissolution are known: Type I, where enamel rods are removed preferentially, Type II, where the organic matrix is removed preferentially, and Type III, where both Type I and Type II dissolution take place. […] The present invention, proposes to control the etching process, using edible acid with a special additive. One of control mechanisms involves additives, including, but not limited to, the ions of Ca Cr, Ba Cd, Mg, P, SiF, and their compounds, such as PO4. Other non-organic or organic additives may also be used. Additions of such ion combinations may slow the dissolution of the inter-prismatic regions or may provide for re-crystallization of hydroxyapatite crystallites, or the building of new crystallites of fluroapatite. The use of such additives can be effective in the control of tooth etching, or in the preparation of the tooth surface for the application of a protective or cosmetic coating, or for the thermal re-crystallization of the tooth surface.
Extracted teeth with healthy enamel were used in the experiment. One half of enamel surface of each tooth was covered with a protective cover (“control side”). The other side (“treatment side”) was left unprotected. […]

[2] = 180-minute exposure of tooth halves to citric acid solution or gel, then methylene blue; settings: pH=1.5, +20° C., 180 minutes
Description: Exposure in both cases was for 180 minutes and the tooth was then washed in distilled water. […] The tooth was then exposed to an aqueous solution of methylene blue.

[3] = system: maxillary right central incisor of a volunteer; test: Example 2: at-home tooth whitening treatment; settings: for Normalized optical coefficient of reflection: before treatment 1
[4] = system: premolar teeth of a subject; test: Example 1: in-office tooth whitening treatment

safe treatment time (STT) (gingival tissue; 50° C., pH of 1.5): greater than 8 minutes | effect of discomfort on gingival tissue (gingival tissue; pH=1.5, T +20 °C, t 1 min): − | effect of discomfort on gingival tissue (gingival tissue; pH=1.5, T +20 °C, t 2 min): − | effect of discomfort on gingival tissue (gingival tissue; pH=1.5, T +20 °C, t 3 min): − | effect of discomfort on gingival tissue (gingival tissue; pH=1.5, T +20 °C, t 4 min): − | effect of discomfort on gingival tissue (gingival tissue; pH=1.5, T +20 °C, t 5 min): − | effect of discomfort on gingival tissue (gingival tissue; pH=1.5, T +20 °C, t 6 min): − | effect of discomfort on gingival tissue (gingival tissue; pH=1.5, T +20 °C, t 7 min): − | effect of discomfort on gingival tissue (gingival tissue; pH=1.5, T +20 °C, t 8 min): − | effect of discomfort on gingival tissue (gingival tissue; pH=1.5, T +20 °C, t 9 min): − | effect of discomfort on gingival tissue (gingival tissue; pH=1.5, T +20 °C, t 10 min): − | effect of discomfort on gingival tissue (gingival tissue; pH=1.5, T +20 °C, t 11 min): − | effect of discomfort on gingival tissue (gingival tissue; pH=1.5, T +20 °C, t 12 min): + | effect of discomfort on gingival tissue (gingival tissue; pH=1.5, T +36 °C, t 1 min): − | effect of discomfort on gingival tissue (gingival tissue; pH=1.5, T +36 °C, t 2 min): − | effect of discomfort on gingival tissue (gingival tissue; pH=1.5, T +36 °C, t 3 min): − | effect of discomfort on gingival tissue (gingival tissue; pH=1.5, T +36 °C, t 4 min): − | effect of discomfort on gingival tissue (gingival tissue; pH=1.5, T +36 °C, t 5 min): − | effect of discomfort on gingival tissue (gingival tissue; pH=1.5, T +36 °C, t 6 min): − | effect of discomfort on gingival tissue (gingival tissue; pH=1.5, T +36 °C, t 7 min): − | effect of discomfort on gingival tissue (gingival tissue; pH=1.5, T +36 °C, t 8 min): − | effect of discomfort on gingival tissue (gingival tissue; pH=1.5, T +36 °C, t 9 min): − | effect of discomfort on gingival tissue (gingival tissue; pH=1.5, T +36 °C, t 10 min): + | effect of discomfort on gingival tissue (gingival tissue; pH=1.5, T +50 °C, t 1 min): − | effect of discomfort on gingival tissue (gingival tissue; pH=1.5, T +50 °C, t 2 min): − | effect of discomfort on gingival tissue (gingival tissue; pH=1.5, T +50 °C, t 3 min): − | effect of discomfort on gingival tissue (gingival tissue; pH=1.5, T +50 °C, t 4 min): − | effect of discomfort on gingival tissue (gingival tissue; pH=1.5, T +50 °C, t 5 min): − | effect of discomfort on gingival tissue (gingival tissue; pH=1.5, T +50 °C, t 6 min): − | effect of discomfort on gingival tissue (gingival tissue; pH=1.5, T +50 °C, t 7 min): − | effect of discomfort on gingival tissue (gingival tissue; pH=1.5, T +50 °C, t 8 min): + | effect of discomfort on gingival tissue (gingival tissue; pH=1.5, T +70 °C, t 1 min): − | effect of discomfort on gingival tissue (gingival tissue; pH=1.5, T +70 °C, t 2 min): − | effect of discomfort on gingival tissue (gingival tissue; pH=1.5, T +70 °C, t 3 min): − | effect of discomfort on gingival tissue (gingival tissue; pH=1.5, T +70 °C, t 4 min): − | effect of discomfort on gingival tissue (gingival tissue; pH=1.5, T +70 °C, t 5 min): − | effect of discomfort on gingival tissue (gingival tissue; pH=1.5, T +70 °C, t 6 min): + | effect of discomfort on gingival tissue (gingival tissue; pH=1.5, T +90 °C, t 1 min): − | effect of discomfort on gingival tissue (gingival tissue; pH=1.5, T +90 °C, t 2 min): − | effect of discomfort on gingival tissue (gingival tissue; pH=1.5, T +90 °C, t 3 min): + | dentinal hypersensitivity and change in gingival tissue ([3]; after treatment or during review appointments): No dentinal hypersensitivity | pain or discomfort throughout treatment ([3]; daily 2 minutes for three weeks): did not report any pain or discomfort | detrimental changes in soft tissues or enamel (post-treatment caries) ([3]; four month review visit): no detrimental changes | pain or discomfort throughout the treatment ([4]; pH=1.5, average +50° C., 10 minutes): did not report any pain or discomfort
Compound: O=C(O)CC(O)(CC(=O)O)C(=O)O [citric acid]
damage to soft tissues (gingival tissue; high concentrations and high temperatures (up to 90° C.)): did not cause damage to soft tissues | hardness of treated surface (dental probe / versus control side) [1]: easily damaged by scratching with a dental probe | predominant etching pattern [1]: Type I etching | specular reflection property of tooth surface [1]: completely lost its specular reflection property | whitening effect of treated sides [1]: comparable | coloration by aqueous methylene blue after exposure [2]: colored by methylene blue | type of enamel etching [2]: Type I etching | whitening effect [2]: strong whitening effect | Normalized optical coefficient of reflection ([3]; 1 months after treatment): 1.3 a.u. | Normalized optical coefficient of reflection ([3]; 4 months after treatment): 1.15 a.u. | Normalized optical coefficient of reflection ([3]; after 3 weeks of daily treatment (pH=1.5, room temperature, 2 minutes)): 1.34 a.u. | change in enamel gloss and reflection ([3]; after three-week treatment): No visible change in enamel gloss and reflection | improvement in tooth whitening (coefficient of reflection for white light) versus original color ([3]; after three-week treatment): 35% | improvement compared with original coefficient of reflection ([3]; four months after treatment): approximately 15% | whitening effect exceeding the original ([3]; one month after treatment): 33% | change in gingival tissue and hypersensitivity ([4]; after treatment or during follow up appointments): No change in gingival tissue and no hypersensitivity | gloss of treatment side versus control side ([4]; immediately after treatment): less glossy than the control side
